In brackets after ≈: the same amount, converted by molar mass. Like-named read-outs stand apart in the source and are kept apart here. Marks after values point to notes of the source that are not given here. One block for each compound: values may come before it.
Columns and labels:
[1] = test system: CMDR A. baumannii (FADDI-AB156); assay: Antibiogram of CMDR A. baumannii (MIC); format: cell-based, Acinetobacter baumannii; conditions: for Susceptibility: interpreted by CLSI resistant breakpoints
[2] = test system: CMDR P. aeruginosa (FADDI-PA067); assay: Antibiogram of CMDR P. aeruginosa; format: cell-based, Pseudomonas aeruginosa; conditions: for Susceptibility: interpreted by CLSI resistant breakpoints
[3] = test system: Pseudomonas aeruginosa (P. aeruginosa, ATCC 47085); assay: MBC determination (in vitro antimicrobial experiment, CFU counting); format: cell-based; conditions: Pseudomonas aeruginosa, ATCC47085; compound alone; P. aeruginosa (wild-type)
Protocol: (§1) Freeze-dried cultures of Escherichia coli (E. coli, ATCC 25922), Klebsiella pneumoniae (K. pneumoniae, ATCC 13883), Pseudomonas aeruginosa (P. aeruginosa, ATCC 47085), Acinetobacter baumannii (A. baumannii, ATCC 19606), colistin and multidrug-resistant (CMDR) A. baumannii (FADDI-AB156), and CMDR P. aeruginosa (FADDI-PA067) were grown aerobically and maintained by passage at ambient temperature on horse blood agar (10% v/v defibrinated horse blood, 4.4% w/v Oxoid Blood Agar Base No. 2). Overnight cultures were made from transferring a colony (ca. half a loop) from the agar plates to culture tubes containing sterilized Luria-Bertani broth (LB, 1% w/v Bacto™ Tryptone, 1% w/v NaCl, 0.5% w/v Oxoid Yeast Extract) (20 mL). Bacterial cultures were incubated overnight at 37° C. with aeration and without agitation, with the exception of the two P. aeruginosa strains (ATCC 47085 and FADDI-PA067) which were cultured at 37° C. with aeration and agitation (150 rpm). On the next day, for E. coli, K. pneumonia, P. aeruginosa (ATCC 47085), and CMDR P. aeruginosa (FADDI-PA067), small aliquots (i.e., 0.5-3 mL) were taken from the culture tubes, further diluted with LB (20 mL), and incubated for 3-4 h at 37° C. with aeration before use. All bacterial cultures were cultured without agitation, with the exception of P. aeruginosa ATCC 47085 and FADDI-PA067 which were cultured with shaking at 150 rpm. For A. baumannii, an aliquot of 0.5 mL was taken from the overnight culture tube, further diluted with LB (200 mL), and incubated overnight at 37° C. with aeration before use.
(§2) The 96-well plate was then incubated at 37° C. for 1.5 or 3 h. For each well, microbial solution was diluted with saline (0.9% NaCl solution) using an appropriate dilution factor and placed on a LB agar plate (LB broth containing 15 g/L Oxoid Blood Agar Base No. 2). For E. coli, K. pneumoniae, and A. Baumannii (ATCC 19606 and FADDI-AB156), the agar plates were incubated overnight at room temperature, and then at 37° C. with aeration for 2 h. For P. Aeruginosa (ATCC 47085 and FADDI-PA067), the agar plates were incubated at 37° C. with aeration. The number of colony-forming units (CFU) was counted and expressed as CFU/mL. Positive controls consisting of cells without any treatment were used. […] A minimum of two independent experiments (biological replicates) of the assay were conducted and three technical replicates were used in each experiment. Data is expressed as mean±standard deviation (SD) and analysed using student's t-test.

[4] = test system: CMDR P. aeruginosa (FADDI-PA067); assay: as above; format: cell-based, Pseudomonas aeruginosa; conditions: Pseudomonas aeruginosa, compound alone
Protocol: as §1, §2

[5] = test system: Pseudomonas aeruginosa (P. aeruginosa, ATCC 47085); assay: S16-antibiotic co-administration, synergy by Bliss Independence and HSA models; format: cell-based; conditions: for MBC in combination: S16 and antibiotic co-administered, each at MBC50
Protocol: as §2
(§3) The Bliss Independence and HSA models were used to calculate drug synergism. […] Biotechnol. 31, 160-165 (2013). With the Bliss Independence model, synergism was calculated using the formula, BICAB=A+B−AB (1), where A and B are the effects of the two drugs in isolation and BICAB is the combined effect of the two drugs as predicted by the Bliss Independence model. […] In the HSA model, if CAB is greater than the greater of A and B, CAB>max(A, B), synergy is observed. The quantitative effect of the compounds when administered alone (i.e., A and B) or in combination (i.e., CAB) was defined as the fractional reduction of the population, R=1−CFUt/CFU0, where CFUt is the CFU/mL measured after treatment, and CFU0 is the CFU/mL measured before treatment.

[6] = test system: CMDR P. aeruginosa (FADDI-PA067); assay: as above; format: cell-based, Pseudomonas aeruginosa; conditions: for MBC in combination: S16 and antibiotic co-administered, each at MBC50, 3 h
Protocol: as §2, §3

[7] = test system: Acinetobacter baumannii (A. baumannii, ATCC 19606); assay: MBC determination (in vitro antimicrobial experiment, CFU counting); format: cell-based; conditions: Acinetobacter baumannii, ATCC19606; compound alone; A. baumannii (wild-type)
Protocol: as §1, §2

[8] = test system: CMDR A. baumannii (FADDI-AB156); assay: as above; format: cell-based, Acinetobacter baumannii; conditions: Acinetobacter baumannii, compound alone
Protocol: as §1, §2

[9] = test system: Acinetobacter baumannii (A. baumannii, ATCC 19606); assay: S16-antibiotic co-administration, synergy by Bliss Independence and HSA models; format: cell-based; conditions: for MBC in combination: S16 and antibiotic co-administered, each at MBC50
Protocol: as §2, §3

[10] = test system: CMDR A. baumannii (FADDI-AB156); assay: as above; format: cell-based, Acinetobacter baumannii; conditions: for MBC in combination: S16 and antibiotic co-administered, each at MBC50, 3 h
Protocol: as §2, §3

[11] = Acinetobacter baumannii, CMDR A. baumannii (FADDI-AB156), read-out: MIC
[12] = CMDR A. baumannii (FADDI-AB156)
[13] = co-administered S16 (at MBC50) and antibiotic, antibiotic concentration giving at least 2-log reduction in CFU/mL, 3 h
[14] = antibiotic in combination with S16, 3 h, Bliss Independence model
[15] = antibiotic in combination with S16, 3 h, Highest Single Agent model

MIC [1, 11]: ≥ 109 µM
Compound: NCC[C@H](O)C(=O)N[C@@H]1C[C@H](N)[C@@H](O[C@H]2O[C@H](CN)[C@@H](O)[C@H](O)[C@H]2O)[C@H](O)[C@H]1O[C@H]1O[C@H](CO)[C@@H](O)[C@H](N)[C@H]1O [Amikacin]
Susceptibility [1, 12]: Resistant

Compound: C[C@H]1[C@H](NC(=O)/C(=N\OC(C)(C)C(=O)O)c2csc(N)n2)C(=O)N1S(=O)(=O)O [Aztreonam]
Susceptibility [2]: Resistant

MIC [1, 11]: ≥ 141 µM
Compound: Cc1nnc(SCC2=C(C(=O)O)N3C(=O)[C@@H](NC(=O)Cn4cnnn4)[C@H]3SC2)s1 [Cefazolin]
Susceptibility [1, 12]: Resistant

MIC [1, 11]: ≥ 133 µM
Compound: CO/N=C(\C(=O)N[C@@H]1C(=O)N2C(C(=O)[O-])=C(C[N+]3(C)CCCC3)CS[C@H]12)c1csc(N)n1 [Cefepime]
Susceptibility [1, 12]: Resistant

MIC [1, 11]: ≥ 150 µM
Compound: CO[C@@]1(NC(=O)Cc2cccs2)C(=O)N2C(C(=O)O)=C(COC(N)=O)CS[C@@H]21 [Cefoxitin]
Susceptibility [1, 12]: Resistant

MIC [1, 11]: ≥ 117 µM
Compound: CC(C)(O/N=C(\C(=O)N[C@@H]1C(=O)N2C(C(=O)[O-])=C(C[n+]3ccccc3)CS[C@H]12)c1csc(N)n1)C(=O)O [Ceftazidime]
Susceptibility [2]: Resistant | Susceptibility [1, 12]: Resistant

MIC [1, 11]: ≥ 115 µM
Compound: CO/N=C(\C(=O)N[C@@H]1C(=O)N2C(C(=O)O)=C(CSc3nc(=O)c(=O)[nH]n3C)CS[C@H]12)c1csc(N)n1 [Ceftriaxone]
Susceptibility [1, 12]: Resistant

MIC [1, 11]: ≥ 12.1 µM
Compound: O=C(O)c1cn(C2CC2)c2cc(N3CCNCC3)c(F)cc2c1=O [Ciprofloxacin]

Compound: C[C@H]1c2cccc(O)c2C(=O)C2=C(O)[C@]3(O)C(=O)C(C(N)=O)=C(O)[C@@H](N(C)C)[C@@H]3[C@@H](O)[C@@H]21 [Dox, doxycycline]
MBC [3]: 50.7 µM (≈ 22.5 µg/mL) | MBC [4]: 630 µM (≈ 280 µg/mL) | MBC in combination ([5]; P. aeruginosa, 3 h): 25.3 µM | Fold reduction of MBC ([6]; MBCeff with S16 versus MBC alone): 4.2 fold | MBC in combination [6]: 295.3 µM | MBC in combination, MBCeff [6, 13]: 148.2^a μM

MIC [1, 11]: 355 µM (≈ 106 µg/mL)
Compound: C[C@@H](O)[C@H]1C(=O)N2C(C(=O)O)=C(SCCN=CN)C[C@H]12 [Imi, imipenem]
MBC [7]: 37.8 µM (≈ 11.3 µg/mL) | MBC [8]: 355 µM (≈ 106 µg/mL) | MBC in combination ([9]; A. baumannii, 3 h): 19.0 µM | Fold reduction of MBC ([10]; MBCeff in combination versus MBC alone): 4.0 fold | MBC in combination [10]: 177.4 µM | MBC in combination, MBCeff [10, 13]: 88.2^a μM

MIC [1, 11]: ≥ 41.7 µM
Compound: C[C@@H](O)[C@H]1C(=O)N2C(C(=O)O)=C(S[C@@H]3CN[C@H](C(=O)N(C)C)C3)[C@H](C)[C@H]12 [Meropenem]
Susceptibility [1, 12]: Resistant

Compound: CCn1cc(C(=O)O)c(=O)c2ccc(C)nc21 [Nalidixic Acid]
MIC ([1]; Acinetobacter baumannii): ≥ 138 µM | Susceptibility [1, 12]: Resistant

MIC [1, 11]: ≥ 2150 µM
Compound: O=C1CN(/N=C/c2ccc([N+](=O)[O-])o2)C(=O)N1 [Nitrofurantoin]

MIC [1, 11]: ≥ 50.1 µM
Compound: CCn1cc(C(=O)O)c(=O)c2cc(F)c(N3CCNCC3)cc21 [Norfloxacin]
Susceptibility [1, 12]: Resistant

Compound: CCN1CCN(C(=O)N[C@@H](C(=O)N[C@@H]2C(=O)N3[C@@H]2SC(C)(C)[C@@H]3C(=O)O)c2ccccc2)C(=O)C1=O [Piperacillin]
Susceptibility [2]: Resistant

Compound: CC1(C)S[C@@H]2[C@H](NC(=O)[C@H](C(=O)O)c3ccsc3)C(=O)N2[C@H]1C(=O)O [Ticarcillin]
Susceptibility [2]: Resistant

MIC [1, 11]: > 2190 µM
Compound: NC[C@H]1O[C@H](O[C@H]2[C@H](O)[C@@H](O[C@H]3O[C@H](CO)[C@@H](O)[C@H](N)[C@H]3O)[C@H](N)C[C@@H]2N)[C@H](N)C[C@@H]1O [Tob, tobramycin]
MBC [7]: 15.2 µM (≈ 7.11 µg/mL) | MBC [3]: 3.9 µM (≈ 1.82 µg/mL) | MBC [4]: 239 µM (≈ 112 µg/mL) | MBC [8]: > 2190 µM | Interaction with S16 as evaluated by the Bliss Independence and HSA models (in words) ([9]; A. baumannii wild-type, 3 h time point): non-synergistic | Antimicrobial activity on co-administration with S16 compared to compounds alone (log change in CFU/mL) ([9]; A. baumannii wild-type, all compounds at MBC50, t=3 h): antagonism | MBC in combination ([9]; A. baumannii, 3 h): 7.6 µM | Synergistic? (Yes/No) Bliss* ([9]; antibiotic in combination with S16, A. baumannii, 3 h, Bliss Independence model): No | Synergistic? (Yes/No) HAS* ([9]; antibiotic in combination with S16, A. baumannii, 3 h, Highest Single Agent model): No | Interaction with S16 as evaluated by the Bliss Independence and HSA models (in words) ([5]; P. aeruginosa wild-type, 3 h time point): non-synergistic | Antimicrobial activity on co-administration with S16 compared to compounds alone (log change in CFU/mL) ([5]; P. aeruginosa wild-type, all compounds at MBC50, t=3 h): antagonism | MBC in combination ([5]; P. aeruginosa, 3 h): 1.9 µM | Synergistic? (Yes/No) Bliss* ([5]; antibiotic in combination with S16, P. aeruginosa, 3 h, Bliss Independence model): No | Synergistic? (Yes/No) HAS* ([5]; antibiotic in combination with S16, P. aeruginosa, 3 h, Highest Single Agent model): No | Interaction with S16 as evaluated by the Bliss Independence and HSA models (in words) ([6]; 3 h time point): non-synergistic | MBC in combination [6]: 119.7 µM | Antimicrobial activity on co-administration with S16 compared to compounds alone (log change in CFU/mL) ([6]; all compounds at MBC50, t=3 h): antagonistic | Synergistic? (Yes/No) Bliss* [6, 14]: No | Synergistic? (Yes/No) HAS* [6, 15]: No | Interaction with S16 as evaluated by the Bliss Independence and HSA models (in words) ([10]; 3 h time point): non-synergistic | MBC in combination [10]: 2190.3 µM | Antimicrobial activity on co-administration with S16 compared to compounds alone (log change in CFU/mL) ([10]; all compounds at MBC50, t=3 h): antagonistic | Synergistic? (Yes/No) Bliss* [10, 14]: No | Synergistic? (Yes/No) HAS* [10, 15]: No | Susceptibility [2]: Resistant | Susceptibility [1, 12]: Resistant

MIC [1, 11]: ≥ 55.1 µM
Compound: COc1cc(Cc2cnc(N)nc2N)cc(OC)c1OC [Trimethoprim]
Susceptibility [1, 12]: Resistant

Compound: Colistin Sulfate
Susceptibility, concentration in parentheses [2]: > 110.8 µM | Susceptibility [2]: Resistant | Susceptibility [1, 12]: Resistant | MIC ([1]; CMDR A. baumannii (FADDI-AB156), read-out: MIC): 13.8 µM

From US11154589B2, “Antimicrobial composition combinations comprising star shaped peptide polymers” (The University of Melbourne, priority 2016, dated 2021)
